Test results: patent US6794396B2, “Substituted pyridines useful for inhibiting cholesteryl ester transfer protein activity” (Pharmacia Corporation, priority 1998, dated 2004)

Columns and labels:
[1] = system: CETP; experiment: Ex vivo CETP activity assay on serum of chronically infused hamsters; type: in vivo, golden Syrian hamster
Excerpt: (§1) Chronic inhibition of CETP can be achieved by administration of Dimethyl 5,5′-dithiobis[2-difluoromethyl)-4-(2-methylpropyl)-6-(trifluoromethyl)-3-pyridinecarboxylate] (Compound 181) to hamsters using Alzet pump delivery of Compound 181 into the jugular veins of hamsters. Inhibition of CETP should lead to an increase in HDL cholesterol with a concomitant decrease in LDL cholesterol. This can be determined by filtering serum obtained at different time intervals after initiation of inhibitor infusion and quantitating the amount of cholesterol in the LDL and HDL peaks, respectively. In addition the activity of CETP in the serum can be assessed in an ex vivo CETP activity assay.
(§2) Serum cholesterol profiles were determined on pooled sera from each group. Total serum cholesterol and CETP activity were determined on individual serum samples. In hamsters administered Compound 181 chronically, there was a 30% reduction and 26% increase in LDL cholesterol and HDL cholesterol concentrations, respectively, compared to the vehicle group at Day 5. The decrease in LDL and increase in HDL persisted until Day 8 when the Alzet pump was exhausted. […] Therefore, it would appear that for every percent reduction in CETP activity determined by the ex vivo assay, there was a 2-3% decrease in LDL cholesterol or increase in HDL cholesterol concentrations.

[2] = target: T1, CETP (Homo sapiens, UniProt P11597); experiment: CETP activity in vitro: transfer of [3H]CE from HDL donor to LDL acceptor particles; type: biochemical; settings: Table 5, compounds of formula T-5; read-out: IC50
T1 construct: made in house; host or cells: CHO cells (serum-free conditioned medium)
T1 sequence (P11597 18-493): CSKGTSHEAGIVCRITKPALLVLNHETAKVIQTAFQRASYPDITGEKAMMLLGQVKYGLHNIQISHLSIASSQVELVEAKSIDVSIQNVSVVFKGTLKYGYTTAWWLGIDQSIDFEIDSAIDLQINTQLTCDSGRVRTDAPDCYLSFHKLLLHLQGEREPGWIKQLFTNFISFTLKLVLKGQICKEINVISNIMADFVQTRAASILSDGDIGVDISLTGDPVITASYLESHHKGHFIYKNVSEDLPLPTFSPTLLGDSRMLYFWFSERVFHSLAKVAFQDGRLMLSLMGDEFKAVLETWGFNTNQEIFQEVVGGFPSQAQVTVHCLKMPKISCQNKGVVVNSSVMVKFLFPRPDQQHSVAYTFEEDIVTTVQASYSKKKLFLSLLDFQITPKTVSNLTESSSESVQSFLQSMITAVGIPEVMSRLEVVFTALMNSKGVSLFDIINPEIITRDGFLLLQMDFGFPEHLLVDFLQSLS
Outline: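 Transfer of radiolabelled cholesteryl ester from HDL to LDL was followed over 2 h at 37 °C in Tris buffer (pH 7.4, 150 mM NaCl, 2 mM EDTA, 1% BSA), using CETP secreted by transfected CHO cells. Radioactivity in dextran sulfate/Mg-precipitated LDL was measured by scintillation counting, giving IC50.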

[3] = system: CETP; experiment: Chronic inhibition of CETP activity in vivo: Alzet pump infusion, serum LDL/HDL cholesterol profiles by FPLC; set-up: species or system golden Syrian hamster
Excerpt: as §1
Male golden Syrian hamsters were maintained on a diet of normal rodent chow enriched with 0.24% cholesterol for at least 2 weeks prior to study. On Day 1, the hamsters were anesthetized with pentobarbital. An indwelling catheter was inserted into the jugular vein and exteriorized onto the back of the neck. The hamsters received […] of Compound 181 (38.5 mg/kg) in a 2% ethanol:98% PEG400 vehicle, or the 2% ethanol:98% PEG400 vehicle alone. An Alzet pump was then attached to the jugular catheter which delivered a steady infusion of 24 μl/day for a dose of 1.3 mg/day(9.2 mg/kg/day). The hamsters received the vehicle (2% ETOH:98% PEG400) or Compound 181 for 8 days. The hamsters were maintained for 12 days. Blood samples were taken on day 1 (pre-bleed) at the time of surgery, and on days 5, 7, 8 and 12. Fast Protein Liquid Chromatography (FPLC) on tandem Superose 6 columns of pooled hamster serum was performed to obtain cholesterol profiles for the two experimental groups.
as §2

[4] = Day 1 (pre-bleed), pooled serum
[5] = Day 12, after pump exhausted at Day 8, pooled serum

COC(=O)c1c(C(F)F)nc(C(F)(F)F)c(SSc2c(C(F)(F)F)nc(C(F)F)c(C(=O)OC)c2CC(C)C)c1CC(C)C [Compound 181, Dimethyl 5,5′-Dithiobis[2-(difluoromethyl)-4-(2-methylpropyl)-6-(trifluoromethyl)-3-pyridinecarboxylate]]
average reduction in CETP activity by ex vivo assay ([1]; Days 5 and 8): 10%
CETP activity by ex vivo assay ([1]; day 12): return to vehicle control level
IC50 [2]: 1.5 µM
HDL cholesterol concentration, % of cholesterol concentration in vehicle group [3, 4]: 105%
LDL cholesterol concentration, % of cholesterol concentration in vehicle group [3, 4]: 111%
increase in HDL cholesterol concentration compared to the vehicle group ([3]; Day 5): 26%
reduction in LDL cholesterol concentration compared to the vehicle group ([3]; Day 5): 30%
HDL cholesterol concentration, % of cholesterol concentration in vehicle group [3, 5]: 114%
LDL cholesterol concentration, % of cholesterol concentration in vehicle group [3, 5]: 90%
